Like-named read-outs stand apart in the source and are kept apart here. One block for each compound: values may come before it.
Columns and labels:
K-562 [1] = experiment: panel of 60 human tumor cell lines, growth inhibition (Leukemia); settings: Homo sapiens, K562
MDA-MB-468 = experiment: panel of 60 human tumor cell lines, growth inhibition (Breast Cancer); settings: Homo sapiens, MDA-MB-468
IGROV1 [2] = experiment: panel of 60 human tumor cell lines, growth inhibition (Ovarian Cancer); settings: Homo sapiens, IGROV-1
COLO 205 [3] = experiment: panel of 60 human tumor cell lines, growth inhibition (Colon Cancer); settings: Homo sapiens, COLO 205
MOLT-4 [4] = experiment: panel of 60 human tumor cell lines, growth inhibition (Leukemia); settings: Homo sapiens, MOLT-4
LOX IMVI [5] = experiment: panel of 60 human tumor cell lines, growth inhibition (Melanoma); settings: Homo sapiens, 5-dose assay
ACHN [6] = experiment: panel of 60 human tumor cell lines, growth inhibition (Renal Cancer); settings: Homo sapiens
BT-549 [7] = experiment: panel of 60 human tumor cell lines, growth inhibition (Breast Cancer); settings: Homo sapiens, BT-549
HCT-116 [8] = experiment: panel of 60 human tumor cell lines, growth inhibition (Colon Cancer); settings: Homo sapiens, HCT-116, HCT-116; 5-dose assay
M14 [9] = experiment: panel of 60 human tumor cell lines, growth inhibition (Melanoma); settings: Homo sapiens, M14
MALME-3M = experiment: as above; settings: Homo sapiens, Malme-3M
MCF7 [10] = experiment: panel of 60 human tumor cell lines, growth inhibition (Breast Cancer); settings: Homo sapiens, MCF7, MCF7; 5-dose assay
RXF 393 [11] = experiment: panel of 60 human tumor cell lines, growth inhibition (Renal Cancer); settings: Homo sapiens, RXF 393, RXF 393; 5-dose assay
OVCAR-3 [12] = experiment: panel of 60 human tumor cell lines, growth inhibition (Ovarian Cancer); settings: Homo sapiens, OVCAR-3
[13] = tested on: panel of 60 human tumor cell lines; experiment: panel of 60 human tumor cell lines, whole panel or sub-panel (single concentration screen, summaries); format: cell-based; settings: range over 6a and 6e
NCI-H522 [14] = experiment: panel of 60 human tumor cell lines, growth inhibition (Non-Small Cell Lung Cancer); settings: Homo sapiens, NCI-H522
DU-145 [15] = experiment: panel of 60 human tumor cell lines, growth inhibition (Prostate Cancer); settings: Homo sapiens, DU-145
TK-10 [16] = experiment: panel of 60 human tumor cell lines, growth inhibition (Renal Cancer); settings: Homo sapiens, TK-10, TK-10; 5-dose assay
HL-60(TB) [17] = experiment: cells; settings: Homo sapiens, HL-60
[18] = hydrolytic stability in human plasma; format: in vitro ADME
T-47D [19] = experiment: panel of 60 human tumor cell lines, growth inhibition (Breast Cancer); settings: Homo sapiens, T47D
CAKI-1 [20] = experiment: panel of 60 human tumor cell lines, growth inhibition (Renal Cancer); settings: Homo sapiens, CAKI-1
SNB-75 = experiment: panel of 60 human tumor cell lines, growth inhibition (CNS Cancer); settings: Homo sapiens, SNB-75
SR = experiment: panel of 60 human tumor cell lines, growth inhibition (Leukemia); settings: Homo sapiens
CCRF-CEM [21] = experiment: as above; settings: Homo sapiens
HOP-92 [22] = experiment: panel of 60 human tumor cell lines, growth inhibition (Non-Small Cell Lung Cancer); settings: Homo sapiens, HOP-92, HOP-92; 5-dose assay
SF-539 [23] = experiment: panel of 60 human tumor cell lines, growth inhibition (CNS Cancer); settings: Homo sapiens, SF-539
SW-620 [24] = experiment: panel of 60 human tumor cell lines, growth inhibition (Colon Cancer); settings: Homo sapiens, SW-620, SW-620; 5-dose assay
MDA-MB-435 [25] = experiment: panel of 60 human tumor cell lines, growth inhibition (Melanoma); settings: Homo sapiens, MDA-MB-435
RPMI-8226 [26] = experiment: panel of 60 human tumor cell lines, growth inhibition (Leukemia); settings: Homo sapiens, RPMI-8226
COLO 205 [27] = settings: values obtained from NCI database; cited from earlier work
MCF7 [28] = settings: values obtained from NCI database; cited from earlier work
RPMI-8226 [29] = settings: values obtained from NCI database; cited from earlier work
MOLT-4 [30] = settings: values obtained from NCI database; cited from earlier work
HOP-92 [31] = settings: values obtained from NCI database; cited from earlier work
DU-145 [32] = settings: values obtained from NCI database; cited from earlier work
HCT-116 [33] = settings: values obtained from NCI database; cited from earlier work
LOX IMVI [34] = settings: values obtained from NCI database; cited from earlier work
RXF 393 [35] = settings: values obtained from NCI database; cited from earlier work
IGROV1 [36] = settings: values obtained from NCI database; cited from earlier work
SW-620 [37] = settings: values obtained from NCI database; cited from earlier work
ACHN [38] = settings: values obtained from NCI database; cited from earlier work
MDA-MB-435 [39] = settings: values obtained from NCI database; cited from earlier work
OVCAR-3 [40] = settings: values obtained from NCI database; cited from earlier work
CCRF-CEM [41] = settings: values obtained from NCI database; cited from earlier work
M14 [42] = settings: values obtained from NCI database; cited from earlier work
T-47D [43] = settings: values obtained from NCI database; cited from earlier work
BT-549 [44] = settings: values obtained from NCI database; cited from earlier work
SF-539 [45] = settings: values obtained from NCI database; cited from earlier work
HL-60(TB) [46] = settings: values obtained from NCI database; cited from earlier work
TK-10 [47] = settings: values obtained from NCI database; cited from earlier work
NCI-H522 [48] = settings: values obtained from NCI database; cited from earlier work
K-562 [49] = settings: values obtained from NCI database; cited from earlier work
CAKI-1 [50] = settings: values obtained from NCI database; cited from earlier work
AML 052308 cells [51] = tested on: AML 052308 cells
Source text: (§1) Derivatives were screened for antileukemic activity against AML cells in culture (See FIGS. 1-7).

[52] = tested on: AML 100510 primary isolate; experiment: antileukemic activity, cell viability
[53] = tested on: AML 123009 primary isolate; experiment: antileukemic activity, cell viability
M9 ENL cells = experiment: antileukemic activity, cell viability; settings: M9 ENL cell line
Procedure: Carbamate and carbonate derivatives of MMB were also screened for activity against M9 ENL cells at concentrations of 5, 10 and 20 μM (FIG. 10). […] Additionally, succinic amide derivatives of MMB were screened for activity against M9 ENL cells at concentrations of 5, 10 and 20 μM (FIG. 11).

AML 052308 cells [54] = experiment: cells; settings: read-out: LC50
Source text: as §1

SMILES: C=C1C(=O)O[C@H]2[C@H]1CC/C(COC(=O)N1CCC(F)(F)CC1)=C\CC[C@@]1(C)O[C@@H]21 [6a, ((1aR,7aS,10aS,10bS,E)-1a-methyl-8-methylene-9-oxo-1a,2,3,6,7,7a,8,9,10a,10b-decahydrooxireno[2′,3′:9,10]cyclodeca[1,2-b]furan-5-yl)methyl-4,4-difluoropiperidine-1-carboxylate]
- GI50 (K-562 [1]): 3.45 µM
- GI50 (MDA-MB-468): 0.57 µM
- GI50 (IGROV1 [2]): 2.31 µM
- GI50 (COLO 205 [3]): 2.06 µM
- GI50 (MOLT-4 [4]): 2.05 µM
- GI50 (LOX IMVI [5]): 2.23 µM
- GI50 (ACHN [6]): 1.79 µM
- GI50 (BT-549 [7]): 2.69 µM
- GI50 (HCT-116 [8]): 1.41 µM
- GI50 (M14 [9]): 2.84 µM
- GI50 (MALME-3M): 1.9 µM
- GI50 (MCF7 [10]): 1.62 µM
- GI50 (RXF 393 [11]): 1.2 µM
- GI50 (OVCAR-3 [12]): 1.69 µM
- GI50 ([13]; sub-panel breast cancer): 0.57 to 3.07 µM
- GI50 ([13]; sub-panel colon cancer): 1.12 to 2.06 µM
- GI50 ([13]; sub-panel melanoma): 0.46 to 2.84 µM
- GI50 ([13]; sub-panel non-small cell lung cancer): 0.65 to 1.45 µM
- GI50 ([13]; sub-panel renal cancer): 0.9 to 2.6 µM
- GI50 (NCI-H522 [14]): 1.25 µM
- GI50 (DU-145 [15]): 2.44 µM
- melting point: 150 °C
- GI50 (TK-10 [16]): 2.6 µM
- GI50 (HL-60(TB) [17]): 2.04 µM
- half-life [18]: 8 h
- GI50 (T-47D [19]): 3.07 µM
- GI50 (CAKI-1 [20]): 2.03 µM
- GI50 (SNB-75): 6.13 µM
- GI50 (SR): 1.38 µM
- GI50 (CCRF-CEM [21]; 5-dose assay): 0.68 µM
- GI50 (CCRF-CEM [21]; leukemia cell line CCRF-CEM): 0.68 µM
- GI50 (HOP-92 [22]): 1.45 µM
- GI50 (SF-539 [23]): 1.98 µM
- GI50 (SW-620 [24]): 1.46 µM
- GI50 (MDA-MB-435 [25]): 0.46 µM
- GI50 (RPMI-8226 [26]): 1.98 µM

SMILES: C=C1C(=O)O[C@H]2[C@H]1CC/C(COC(=O)NCCCn1ccnc1)=C\CC[C@@]1(C)O[C@@H]21 [6f, ((1aR,7aS,10aS,10bS,E)-1a-methyl-8-methylene-9-oxo-1a,2,3,6,7,7a,8,9,10a,10b-decahydrooxireno[2′,3′:9,10]cyclodeca[1,2-b]furan-5-yl)methyl-(3-(1H-imidazol-1-yl)-propyl)carbamate]
- melting point: 70 °C

- melting point: 60 °C
SMILES: C=C1C(=O)O[C@H]2[C@H]1CC/C(COC(=O)NCCCN1CCOCC1)=C\CC[C@@]1(C)O[C@@H]21 [6g, ((1aR,7aS,10aS,10bS,E)-1a-methyl-8-methylene-9-oxo-1a,2,3,6,7,7a,8,9,10a,10b-decahydrooxireno[2′,3′:9,10]-cyclodeca[1,2-b]furan-5-yl)methyl-(3-morpholinopropyl)carbamate]

SMILES: C/C1=C\CC[C@@]2(C)O[C@@H]2[C@H]2OC(=O)[C@H](CN(C)C)[C@@H]2CC1 [DMAPT, dimethylaminoparthenolide]
- GI50 (COLO 205 [27]): 31.6 µM
- GI50 (MCF7 [28]): 5.01 µM
- GI50 (RPMI-8226 [29]): 2.51 µM
- GI50 (MOLT-4 [30]): 3.16 µM
- GI50 (HOP-92 [31]): 10 µM
- GI50 (DU-145 [32]): 5.01 µM
- GI50 (HCT-116 [33]): 5.01 µM
- GI50 (LOX IMVI [34]): 10 µM
- GI50 (RXF 393 [35]): 15.8 µM
- GI50 (IGROV1 [36]): 19.9 µM
- GI50 (SW-620 [37]): 3.98 µM
- GI50 (ACHN [38]): 15.8 µM
- GI50 (MDA-MB-435 [39]): 7.94 µM
- GI50 (OVCAR-3 [40]): 12.5 µM
- GI50 (CCRF-CEM [41]): 1.99 µM
- GI50 (M14 [42]): 15.8 µM
- GI50 (T-47D [43]): 39.8 µM
- GI50 (BT-549 [44]): 5.01 µM
- GI50 (SF-539 [45]): 2.51 µM
- GI50 (HL-60(TB) [46]): 1.58 µM
- GI50 (TK-10 [47]): 3.16 µM
- GI50 (NCI-H522 [48]): 2.51 µM
- GI50 (K-562 [49]): 2.51 µM
- GI50 (CAKI-1 [50]): 12.5 µM

SMILES: C=C1C(=O)O[C@H]2[C@H]1CC/C(COC(=O)NCCCn1ccnc1)=C\CC[C@@]1(C)O[C@@H]21 [JVM 58]
- cytotoxicity compared to MMB (AML 052308 cells [51]): less active than MMB

SMILES: C=C1C(=O)O[C@H]2[C@H]1CC/C(COC(=O)NCc1ccccn1)=C\CC[C@@]1(C)O[C@@H]21 [JVM 74]
- cytotoxicity compared to MMB (AML 052308 cells [51]): almost equal cytotoxicity to MMB

SMILES: C=C1C(=O)O[C@H]2[C@H]1CC/C(COC(=O)CCN1CCCCC1)=C\CC[C@@]1(C)O[C@@H]21 [JVM 88]
- antileukemic activity compared to MMB [52]: good antileukemic activity compared to MMB
- antileukemic activity compared to MMB [53]: good antileukemic activity compared to MMB
- antileukemic activity compared to MMB (M9 ENL cells): good antileukemic activity compared to MMB

SMILES: C=C1C(=O)OC2C1CC/C(CO)=C\CCC1(C)OC21 (centres unmarked) [MMB, Melampomagnolide B]
- CC50 (AML 052308 cells [54]): 16 µM

From patent US9469650B2, “Melampomagnolide B derivatives” (BOARD OF TRUSTEES OF THE UNIVERSITY OF ARKANSAS, priority 2013, dated 2016)
